The text below walks through data of patent US9284333B2, “Fused pyrroledicarboxamides and their use as pharmaceuticals” (SANOFI, priority 2012, dated 2016).

pIC50: −log10 of the molar value.

The target of one test is Human TASK-1 channels (Homo sapiens (Human), UniProt O14649). Nature of the test: Determination of the activity on the TASK-1 channel in Xenopus oocytes (two-microelectrode voltage clamp). Format: cell-based. Conditions: for pIC50: human TASK-1 expressed in Xenopus oocytes, room temperature, read-out: IC50 value for TASK-1 inhibition. A digest of the protocol:
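Current during 500 ms pulses to 40 mV from a −90 mV hold was recorded in oocytes expressing human TASK-1 for two days after cRNA injection. Compounds were added cumulatively to the ND96 bath (pH 7.4, room temperature). IC50 came from dose-response fitting of inhibition relative to pre-compound current.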

Test [1] concerns atrium of the anesthetized pig. Nature of the test: Investigation of the refractory period and the left-atrial vulnerability in the anesthetized pig. It is filed as in vivo. Conditions: Sus scrofa, iv. The protocol:
Investigation of the Refractory Period and the Left-Atrial Vulnerability in the Pig
The compounds were tested for prolongation of the refractory period and antiarrhythmic activity on the atrium of the anesthetized pig as described in Knobloch K. et al., Naunyn-Schmiedeberg's Arch. Pharmacol. 2002, 366, 482-487. Here the anti-arrhythmic action relates to the inhibition of the occurrence of episodes of atrial arrhythmias which are induced by a prematurely placed extra-stimulus (S2) in the left atrium (=left-atrial vulnerability). The prolongation of the refractory period (refractoriness) is expressed as the increase in percent of the value of the refractory period 15 min after the end of administration of the test compound vs. the basal value before administration. Mean values of the prolongation of the refractory period are shown from three rates (150/min, 200/min and 250/min). The values for the inhibition of left atrial vulnerability (inhibition of episodes of arrhythmias) in percent refer to three measurements (three time points) before administration of the test compound vs. at least three measurements during the first hour after administration.
In Table 16, the action of compounds of the formula I from the examples above on the refractory period of the left atrium and their antiarrhythmic activity in the anesthetized pig after intravenous (i.v.) administration of the described dose is shown.

Sequence of Human TASK-1 channels (O14649 whole entry): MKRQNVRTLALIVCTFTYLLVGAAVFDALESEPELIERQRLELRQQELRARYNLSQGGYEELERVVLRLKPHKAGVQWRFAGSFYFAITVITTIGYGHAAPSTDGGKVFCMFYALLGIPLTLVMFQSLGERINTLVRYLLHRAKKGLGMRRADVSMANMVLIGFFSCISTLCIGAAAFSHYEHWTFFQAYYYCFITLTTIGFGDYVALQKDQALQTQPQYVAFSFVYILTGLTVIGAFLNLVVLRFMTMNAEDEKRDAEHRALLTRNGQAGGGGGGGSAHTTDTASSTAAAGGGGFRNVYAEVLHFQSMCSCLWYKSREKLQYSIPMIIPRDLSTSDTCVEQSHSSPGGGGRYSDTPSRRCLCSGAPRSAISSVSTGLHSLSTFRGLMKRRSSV

In the case of `CC[C@@H](NC(=O)c1cc(C(=O)N[C@H](C)c2ccc(F)cc2)n2c1COCC2)c1ccc(C(F)(F)F)nc1` [16g, 3,4-Dihydro-1H-pyrrolo[2,1-c][1,4]oxazine-6,8-dicarboxylic acid 6-{[(R)-1-(4-fluoro-phenyl)-ethyl]-amide} 8-{[(R)-1-(6-trifluoromethyl-pyridin-3-yl)-propyl]-amide}], the pIC50 on Human TASK-1 channels was 6.54. This compound yielded an inhibition in vivo at 0.3 mg/kg in test [1] (0.3 mg/kg i.v. bolus injection) of 100%. Also, the change in vivo at 0.3 mg/kg in test [1] (0.25 h, 0.3 mg/kg i.v. bolus injection, 15 min after administration vs basal, mean of three rates, read-out: % Prolongation of left atrial refractory period) amounted to 19%.

Take `CC[C@H](NC(=O)c1cc(C(=O)N[C@H](C)c2ccc(F)cc2)n2c1COCC2)c1ncccn1` [16h, 3,4-Dihydro-1H-pyrrolo[2,1-c][1,4]oxazine-6,8-dicarboxylic acid 6-{[(R)-1-(4-fluoro-phenyl)-ethyl]-amide} 8-[((S)-1-pyrimidin-2-yl-propyl)amide]]: the pIC50 on Human TASK-1 channels was 6.62. This compound yielded an inhibition in vivo at 0.1 mg/kg in test [1] (0.1 mg/kg i.v. infusion over 1 h) of 97%. In test [1] (0.25 h, 0.1 mg/kg i.v. infusion over 1 h, read-out: % Prolongation of left atrial refractory period), the change in vivo at 0.1 mg/kg was found to be 42%.

Regarding `CC[C@@H](NC(=O)c1cc(C(=O)N2CCC[C@@H]2C)n2c1COCC2)c1ccc(Cl)nc1` [16ar, 6-((S)-2-Methyl-pyrrolidine-1-carbonyl)-3,4-dihydro-1H-pyrrolo[2,1-c][1,4]oxazine-8-carboxylic acid [(R)-1-(6-chloro-pyridin-3-yl)-propyl]-amide], the negative-log IC50 (pIC50) on Human TASK-1 channels was 6.36.

As to `CC[C@@H](NC(=O)c1cc(C(=O)NCc2ccc(C(=O)OC)cc2)n2c1COCC2)c1ccccc1` [16ir, 4-({[8-((R)-1-Phenyl-propylcarbamoyl)-3,4-dihydro-1H-pyrrolo[2,1-c][1,4]oxazine-6-carbonyl]-amino}-methyl)-benzoic acid methyl ester], the pIC50 at Human TASK-1 channels was 6.46.

`CC[C@@H](NC(=O)c1cc(C(=O)N2CCC[C@@H]2C)n2c1CCCC2)c1ccc2c(c1)COC2=O` [16lz, 3-((S)-2-Methyl-pyrrolidine-1-carbonyl)-5,6,7,8-tetrahydro-indolizine-1-carboxylic acid [(R)-1-(1-oxo-1,3-dihydro-isobenzofuran-5-yl)-propyl]-amide] returned an inhibition at 5 µM against Human TASK-1 channels (compound concentration 5 μM) of 76%.

A word on the pIC50: it is the negative decadic logarithm of the IC50, by convention in mol/L. What is called inhibition in vivo is the percentage by which the read-out fell short of the control. A lower inhibition in vivo goes with a response near the control. Usually inhibition stands for the change of the read-out against control, counted positive when it falls. Read a low inhibition as little suppression.
